The values that follow come from patent publication US20080317780A1, “VIRAL VACCINE AND METHOD FOR PREPARATION THEREOF” (NATIONAL RESEARCH COUNCIL OF CANADA, priority 2006, published 2008).

The assay has as its system zinc finger protein metallothionein (MT). The assay is described as follows: Zinc-finger disruption assay (zinc release from metallothionein, PAR absorbance at 500 nm). In kind it is biochemical. The protocol:
Biochem. Biophys. 287:175-179, 1991; and Fliss, H.; Ménard, M., “Oxidant-induced mobilization of zinc from metallothionein” Arch. Biochem. Biophys. 293:195-199, 1991. Briefly, the assay is conducted as follows. The assay is performed in a cuvet containing the zinc finger protein metallothionein (MT), and the metallochromic indicator 4-(2-pyridylazo)resorcinol (PAR).

The structures appear in SMILES notation.

Turning to `OCl` [hypochlorous acid], for the setting “100 μmol/L”, the “release of zinc in the zinc-finger assay (PAR absorbance)” value was “rapid”. Consider `NCl` [monochloramine], for which the “zinc-finger disruption (PAR absorbance)” value (25 μmol/L) is given as “increase in PAR absorbance”.

In the case of `N[C@@H](Cc1ccccc1)C(=O)O` [phenylalanine], where the note is “500 μmol/L”, the “release of zinc in the zinc-finger assay (PAR absorbance)” value is listed as “negligible”.
